The record followed here is patent US12485107B2, “Methods for the prevention or treatment of cytokine storm” (Beth Israel Deaconess Medical Center, Inc., priority 2019, dated 2025).

Assay [1] deals with RAW264.7 murine macrophages. Format: cell-based. As to conditions: 5 μM, 2 hours pre-treatment.
The test system of assay [2] is ID8 murine ovarian tumor cells. The assay can be described thus: Annexin V/propidium iodide flow cytometry of chemotherapy-treated ID8 cells. As to conditions: annexin V/PI; cisplatin 30 μM 48 hours, carboplatin 100 μM 72 hours, paclitaxel 1 μM 48 hours. Format: cell-based. How it is done:
Chemotherapy-generated murine (ID8) and human (OVCAR5) ovarian tumor cell debris were prepared by re-feeding 70% confluent T150 flasks with complete medium plus 1 μM paclitaxel (Cayman Chemical, Ann Arbor, MI) or 100 μM carboplatin (Sigma Aldrich, Natick, MA) and incubating for 48 or 72 hours, respectively, at 37° C. Cisplatin-generated ID8 debris was prepared by re-feeding 70% confluent T150 flasks with complete medium plus 30 μM cisplatin (Sigma Aldrich, Natick, MA) and incubating for 48 hours at 37° C. The resulting floating population (e.g., dead cells or “debris”) was collected, counted via hemocytometer, and pelleted. The dead cells were resuspended with phosphate-buffered saline (PBS), pelleted, and resuspended again at the desired concentration in PBS.
Murine (ID8) or human (OVCAR5) ovarian tumor cells were treated with vehicle or a chemotherapeutic agent (e.g., cisplatin, carboplatin, or paclitaxel) as described. B/CMBA.Ov murine ovarian epithelial cells were treated with vehicle or PTUPB (1 or 5 μM) for 24 hours. The floating population (e.g., dead cells or “debris”) was collected, and the remaining adhered cells were trypsinized and combined with the dead cells. RAW264.7 murine macrophages were treated with vehicle or PTUPB (5 μM) for 24 hours. The floating population was collected and the remaining adhered cells were detached using a cell scraper (Corning Inc., Corning, NY) and combined with the dead cells. Cells were counted via hemocytometer, pelleted, and resuspended in PBS at 1×10^6 cells/mL. Next, 2×10^5 cells were stained with annexin V and propidium iodide (PI) according to FITC Annexin V/Dead Cell Apoptosis Kit protocol (Life Technologies, Carlsbad, CA). Staining was assessed using the BD LSR Fortessa (BD Biosciences, San Jose, CA) at the Dana-Farber Cancer Institute Jimmy Fund Flow Cytometry Core, and analyzed using FlowJo software (Tree Star Inc., Ashland, OR). Experiments were performed three times with similar results.
For orientation: A flow cytometer gives signals particle by particle.

“Also recorded” adds a separate entry of the source.

As for `COc1ccc(-n2nc(CCCNC(=O)Nc3ccc(C(F)(F)F)cc3)cc2-c2ccccc2)cc1` [Ome-21i, 1-(3-(1-(4-methoxyphenyl)-5-phenyl-1H-pyrazol-3-yl)propyl)-3-(4-(trifluoromethyl)phenyl)urea], the “cytokine storm released by macrophages stimulated with aflatoxin B1-generated Hepa 1-6 debris” value in assay [1] is reported as “shows potency in down-regulating; also recorded: inhibited”.

Consider `N.N.O=C([O-])C1(C(=O)[O-])CCC1.[Pt+2]` [carboplatin], for which the “cell death in ID8 ovarian cells” value in assay [2] is reported as 78%.

On to `N.N.[Cl][Pt][Cl]` [Cisplatin], for which the “cell death in ID8 ovarian cells” value in assay [2] is recorded as 67%.

For the molecule `CC(=O)O[C@H]1C(=O)[C@@]2(C)[C@H]([C@H](OC(=O)c3ccccc3)[C@]3(O)C[C@H](OC(=O)[C@H](O)[C@@H](NC(=O)c4ccccc4)c4ccccc4)C(C)=C1C3(C)C)[C@]1(OC(C)=O)CO[C@@H]1C[C@@H]2O` [paclitaxel], the “cell death in ID8 ovarian cells” value in assay [2] worked out at 56%.
